Consider one compound from publication PMC5507927, “Lybatides from Lycium barbarum Contain An Unusual Cystine-stapled Helical Peptide Scaffold” (Scientific Reports, 2017).

Positions of bridges follow the written chain, without caps; N, C: chain ends. Residues, ends and D or L forms follow the SMILES beside them.

The subject of data set [1] is trypsin. Description: Enzymatic stability with trypsin (RP-HPLC profile against control). Format: in vitro ADME. To be noted: trypsin (1 μL of 0.5 μg/μL), 37 °C, 10 μg peptide in 100 μL 100 mM ammonium bicarbonate buffer pH 7.8, RP-HPLC profile compared with control without trypsin, read-out: peptide not degraded when incubated with trypsin. How it is done: CRPs with a well-defined disulfide core are known for their compact structure and high resistance to heat and enzymatic degradation. This stability is an important characteristic for CRPs as putative bioactive peptides in order for them to survive decoction processes in traditional herbal preparations and to retain both bioavailability and pharmacological effects by oral administration. […] A total of 96% of lyba1 remained after heating in boiling water at 100 °C for 2 h. Similarly, 99% of the peptide remained intact after incubation in 2 M HCl for 3 h, and 99% of the peptide was not degraded when incubated with trypsin for 3 h (Fig. 5).
Figure 5 Stability assays of lybatide, lyba1. (A) Thermal stability of lyba1 incubated at 100 °C for 2 h. (B) Acidic condition stability of lyba1 incubated in 2.0 M HCl […] for […]. […] (D) Stability of lyba1 incubated in human serum for 60 min at 37 °C, DALK was used as a control. The molecular weight of the peak was determined by MALDI-MS. TEXT PRINTED IN THE PICTURE: (A) lyba1: Cald.: 3509; Found: 3509 | (B) lyba1: Cald.: 3509; Found: 3509 | (C) lyba1: Cald.: 3509; Found: 3509 DOUBTS OF THE COPYIST ABOUT THIS PICTURE: lyba1, panels A-C: 'Cald.' and 'Found' are printed with no measure or unit. I took them as molecular weight, but they may be only mass-spectrometric peak identification. […]

Data set [2] has as its system adenocarcinomic human alveolar basal epithelial cells (A549, ATCC CCL-185). As to the kind of experiment: MTT cell toxicity assay. In kind it is cell-based. The following applies: overnight incubation, tested up to 100 μM (method section: 0.01-10 μM). How it is done:
(§1) Many CRPs including defensins, thionins and hevein-like peptides display antimicrobial or cytotoxic activity.
(§2) Lybatide lyba1 was tested for its cytotoxicity effect against human umbilical vein endothelial cells (HUVEC-CS, ATCC CRL-2873), monkey kidney epithelial cells (Vero, ATCC CCL-81) and adenocarcinomic human alveolar basal epithelial cells (A549, ATCC CCL-185). Briefly, 1 × 10^4 cells per well in 100 μL were seeded into a 96-well plate (TPP, Switzerland) and incubated overnight. The supernatant was removed, and the cells were washed twice with phosphate buffered saline (PBS; Gibco, USA). The cells were then treated with lyba1 at concentrations 0.01 μM, 0.1 μM, 1 μM, and 10 μM and incubated overnight, with 10% DMSO used as positive control.
(§3) After incubation, MTT was added to the wells and the plate was incubated for 1.5 h at 36.7 °C. Next, 200 μL of 100% DMSO was added, incubated for 2 h, and the absorbance was determined with a microplate reader at 550 nm wavelength.
For orientation: Tetrazolium assays rely on reduction of a dye to a coloured formazan, in cell work by metabolically active cells.

Data set [3] deals with human umbilical vein endothelial cells (HUVEC-CS, ATCC CRL-2873). As to the kind of experiment: MTT cell toxicity assay. In kind it is cell-based. To be noted: overnight incubation, tested up to 100 μM (method section: 0.01-10 μM). The protocol:
as §1, §2, §3

Data set [4] relates to monkey kidney epithelial cells (Vero, ATCC CCL-81). As to the kind of experiment: MTT cell toxicity assay. In kind it is cell-based. To be noted: overnight incubation, tested up to 100 μM (method section: 0.01-10 μM). The protocol:
as §1, §2, §3

Consider `CC[C@H](C)[C@@H]1NC(=O)[C@@H]2CSSC[C@H](NC(=O)[C@H](CO)NC(=O)[C@@H](N)CC(=O)O)C(=O)N[C@@H](CO)C(=O)N[C@@H](CCC(=O)O)C(=O)N[C@@H](Cc3ccc(O)cc3)C(=O)N[C@H]3CSSC[C@@H](C(=O)N4CCC[C@H]4C(=O)N[C@@H](CO)C(=O)O)NC(=O)[C@H](CSSC[C@H](NC(=O)[C@H](CO)NC(=O)[C@H](CC(N)=O)NC(=O)[C@H](CC(N)=O)NC(=O)[C@H](CO)NC3=O)C(=O)N3CCC[C@H]3C(=O)N[C@@H](Cc3ccc(O)cc3)C(=O)N[C@H]3CSSC[C@H](NC(=O)[C@H](CC(C)C)NC(=O)[C@H]([C@@H](C)O)NC(=O)[C@H](Cc4ccc(O)cc4)NC(=O)[C@H](CC(C)C)NC(=O)[C@H](CCCCN)NC(=O)[C@H](CCC(N)=O)NC(=O)CNC(=O)[C@H](CC(=O)O)NC3=O)C(=O)N2)NC(=O)[C@H]([C@@H](C)O)NC(=O)[C@H](CC(N)=O)NC1=O` [lyba1] (H-DSCSEYCSNNSCPYCDGQKLYTLCCINTCCPS-OH; disulfide 3-25, 7-30, 12-29, 15-24), for which the remaining at 3 h, 100 µg/mL in data set [1] turned out to be 99%. Further, the cytotoxic effect entry in data set [2], in data set [3] and in data set [4] was “did not display any cytotoxic effect” throughout.
